The target in the test is Nonstructural protein 3 (Zika virus, UniProt A0A024AXB9). In words: Functional biochemical assay to identify treatments for viral infectious disease that targets Zika NS2B-NS3 protease. Utilizing a direct enzyme activity measurement method, reading the fluorescence intensity is used to characterize the relative potency of inhibitors as IC50. Also noted: species or system PRVABC59.

“And” between values parts separate entries of the source, which are not always exact repeats. Identical values can stand only once. A value given as a limit tells only on which side of the number the result lay.

Sequence of Nonstructural protein 3 (A0A024AXB9 whole entry): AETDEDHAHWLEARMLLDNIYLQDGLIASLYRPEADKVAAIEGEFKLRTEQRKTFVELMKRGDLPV

As to `NCc1cccc(NC(=O)[C@H](NS(=O)(=O)c2cccc(Cl)c2)c2ccc(OCc3ccccc3)cc2)c1`, the midpoint of inhibition, the IC50, lay at 57.2 µM.

On to `O=C(O)c1cc(Cl)ccc1S(=O)(=O)NC1CCN(Cc2ccc(F)c(F)c2)CC1`, for which the IC50 (commonly the midpoint of a concentration-inhibition curve) is above 99.5 µM.

As for `O=C(O)c1cc(Cl)ccc1S(=O)(=O)Nc1ccc(N2CCCCC2)c(Cl)c1`, the IC50 is above 99.5 µM.

For `CCCNC(=O)Cn1ccnc(N2CC[C@H](CO)C2)c1=O`, the half-maximal inhibitory concentration (IC50) was above 99.5 µM.

As for `NCc1ccc(CNC(=O)c2cc(Cl)cc(NC(=O)OCc3ccccc3)c2)cc1`, the half-inhibitory concentration (IC50) came out at 42.6 µM.

As to `O=C(O)c1cc(Cl)ccc1S(=O)(=O)NC1CCN(c2ccc(C(F)(F)F)cn2)CC1`, the concentration for half-maximal inhibition (IC50) was above 99.5 µM.

Turning to `O=C(O)Cc1cc(NS(=O)(=O)c2ccc(Oc3ccccc3Cl)cc2)ccc1Cl`, the IC50 was above 99.5 µM.

Compound `NCc1cccc(NC(=O)[C@H](NS(=O)(=O)C2CCCCC2)c2ccc(OCc3ccccc3)cc2)c1` gave an IC50 of 64.8 µM.

For the compound `Cc1nn(C)cc1-c1ccc(S(=O)(=O)Nc2ccc(Cl)cc2C(=O)O)cc1`, the concentration for half-maximal inhibition (IC50) is above 99.5 µM.

Consider `NCc1cccc(NC(=O)C[C@H](NC(=O)OCc2ccccc2)c2ccc(OCc3ccccc3)c(Br)c2)c1`, for which the concentration for half-maximal inhibition (IC50) is 2.72 µM and 2.68 µM and 3.22 µM and 3.04 µM.

The compound `NCc1cccc(NC(=O)C[C@@H](NC(=O)OCc2ccccc2)c2ccc3c(c2)OCO3)c1` had an IC50 above 99.5 µM.

Consider `O=C(O)c1cc(Cl)ccc1S(=O)(=O)N[C@H]1CCn2c(nnc2C(F)(F)F)C1`, for which the concentration for half-maximal inhibition (IC50) is above 99.5 µM.

The compound `O=C(Nc1ccc(NS(=O)(=O)c2ccc(Cl)cc2C(=O)O)cc1)c1ccccc1` returned a half-inhibitory concentration (IC50) above 99.5 µM.

For the compound `COc1ccc(N2CCC(NS(=O)(=O)c3ccc(Cl)cc3C(=O)O)CC2)cc1`, the half-maximal inhibitory concentration (IC50) is above 99.5 µM.

`O=C(O)c1cc(Cl)ccc1S(=O)(=O)N[C@H]1CC[C@@H](Oc2ccccc2)CC1` showed an IC50 above 99.5 µM.

With `CCn1ccnc(N2CCC[C@H]2C(=O)O)c1=O`, the IC50 was above 99.5 µM.

`COc1ccc(NS(=O)(=O)c2ccc(Cl)cc2C(=O)O)cc1-n1nnnc1C` gave an IC50 above 99.5 µM.

Consider `NCc1cccc(NC(=O)[C@H](NC(=O)Cc2ccccc2)c2ccc(OCc3ccccc3)cc2)c1`, for which the IC50 was 28.9 µM and 28.2 µM.

`O=C(O)c1cc(Cl)ccc1NS(=O)(=O)c1ccc(-c2ccccc2Cl)cc1` showed an IC50 of 17.8 µM.

`O=C(O)c1cc(Cl)ccc1S(=O)(=O)NC1CCN(c2ncnc3c2CCC3)CC1` showed a half-maximal inhibitory concentration (IC50) above 99.5 µM.

As to `Cn1ccnc(N2CCC(NS(=O)(=O)c3ccc(Cl)cc3C(=O)O)CC2)c1=O`, the IC50 is above 99.5 µM.

The compound `O=C(O)c1cc(Cl)ccc1S(=O)(=O)NC1CCN(S(=O)(=O)Cc2ccccc2)CC1` had an IC50 above 99.5 µM.

`NCc1cccc(NC(=O)c2cc(NC(=O)OCc3ccccc3)c(=O)n3c2CCCC3)c1` displayed an IC50 above 99.5 µM.

Turning to `COc1ncccc1-c1cccc([C@H](NC(=O)OCc2ccccc2)C(=O)Nc2cccc(CN)c2)c1`, the IC50 was 67.4 µM.

On to `O=C(O)c1cc(Cl)ccc1NS(=O)(=O)c1ccc(-c2ccncc2)cc1`, for which the IC50 was above 99.5 µM.

On to `O=C(O)c1cc(Cl)ccc1S(=O)(=O)Nc1ccc(CCN2CCCC2)cc1`, for which the half-inhibitory concentration (IC50) was above 99.5 µM.

As for `Cc1cc(N2CCCCC2)ccc1NS(=O)(=O)c1ccc(Cl)cc1C(=O)O`, the concentration for half-maximal inhibition (IC50) was above 99.5 µM.

Compound `COc1ccc(NS(=O)(=O)c2ccc(Cl)cc2C(=O)O)cc1N1CCCC1=O` gave an IC50 above 99.5 µM.

Compound `O=C(O)c1cc(Cl)ccc1S(=O)(=O)Nc1ccc(F)c(N2CCNC2=O)c1` showed a concentration for half-maximal inhibition (IC50) above 99.5 µM.

Consider `O=C(O)c1cc(Cl)ccc1NS(=O)(=O)c1ccc(-c2ccccc2F)cc1`, for which the concentration for half-maximal inhibition (IC50) is 29.2 µM.

In turn, `O=C(Cn1ccnc(N2CC[C@H](CO)C2)c1=O)Nc1ccccc1` gave an IC50 above 99.5 µM.

In turn, `NCc1cccc(NC(=O)[C@H](NC(=O)COc2ccccc2)c2ccc(OCc3ccccc3)cc2)c1` displayed a concentration for half-maximal inhibition (IC50) of 26.5 µM.

For `Cn1cc(CCOc2ccc([C@@H](NC(=O)OCc3ccccc3)C(=O)Nc3cccc(CN)c3)cc2)nn1`, the IC50 is above 99.5 µM.

The compound `O=C(O)c1cc(Cl)ccc1S(=O)(=O)Nc1ccc(N2CCCCC2)c(F)c1` came in with an IC50 above 99.5 µM.

For `O=C(O)c1cc(Cl)ccc1S(=O)(=O)Nc1ccc(S(=O)(=O)N2CCCCC2)cc1`, the 50% inhibitory concentration (IC50) was above 99.5 µM.

Consider `Cc1ccc(S(=O)(=O)N2CCC(NS(=O)(=O)c3ccc(Cl)cc3C(=O)O)CC2)cc1`, for which the IC50 was above 99.5 µM.

In the case of `CCC1([C@H](NC(=O)OCc2ccccc2)C(=O)Nc2cccc(CN)c2)CCCCC1`, the concentration for half-maximal inhibition (IC50) was above 99.5 µM.

Turning to `CCOC1CC(S(=O)(=O)N[C@H](C(=O)Nc2cccc(CN)c2)c2ccc(OCc3ccccc3)cc2)C1` (some centres not stated), the 50% inhibitory concentration (IC50) was above 99.5 µM.

On to `NCc1cccc(NC(=O)[C@H]2[C@@H]3CC[C@@H](C3)[C@H]2NC(=O)OCc2ccccc2)c1`, for which the concentration for half-maximal inhibition (IC50) is 30.8 µM and 30.7 µM.

Regarding `CC(C)(C)OC(=O)NCc1cccc(NC(=O)[C@H](NC(=O)OCc2ccccc2)C2CCNCC2)c1`, the IC50 is above 99.5 µM.

Consider `NCc1cccc(NC(=O)[C@H](NC(=O)CCc2ccccc2)c2ccc(OCc3ccccc3)cc2)c1`, for which the 50% inhibitory concentration (IC50) is 15.1 µM and 21.3 µM.

Compound `CSc1ccc([C@H](CC(=O)Nc2cccc(CN)c2)NC(=O)OCc2ccccc2)cc1` displayed a concentration for half-maximal inhibition (IC50) of 43.7 µM.

For the compound `O=C(O)c1cc(Cl)ccc1S(=O)(=O)NC1CCN(CC2CCOCC2)CC1`, the 50% inhibitory concentration (IC50) was above 99.5 µM.

For `NCc1cccc(NC(=O)c2cc(NC(=O)OCc3ccccc3)cc3c2OC(F)(F)O3)c1`, the IC50 is above 99.5 µM.

Take `O=C(O)c1cc(Cl)ccc1S(=O)(=O)Nc1ccc(N2CCCCCC2)cc1`: the IC50 is above 99.5 µM.

Turning to `CCOc1cc(N2CCN(C)CC2)ccc1NS(=O)(=O)c1ccc(Cl)cc1C(=O)O`, the half-maximal inhibitory concentration (IC50) was above 99.5 µM.

As for `O=C(O)c1cc(Cl)c(F)cc1S(=O)(=O)Nc1ccc(Oc2ccccc2Cl)cc1`, the IC50 was 33.5 µM and 34.2 µM.

Turning to `NCc1ccc(NC(=O)c2cc(Cl)cc(NC(=O)OCc3ccccc3)c2)cc1`, the IC50 amounted to 10.3 µM.

For `O=C(O)c1cc(Cl)ccc1S(=O)(=O)NC1CCN(S(=O)(=O)c2ccc(I)cc2)CC1`, the IC50 was above 99.5 µM.

As to `O=C(O)c1cc(Cl)ccc1NS(=O)(=O)c1ccc(-c2cccc(F)c2F)cc1`, the half-maximal inhibitory concentration (IC50) was determined as 25.7 µM.

`CCN1C(=O)CCc2cc(NS(=O)(=O)c3ccc(Cl)cc3C(=O)O)ccc21` came in with an IC50 above 99.5 µM.

Regarding `CN(C(=O)OCc1ccccc1)[C@H](C(=O)Nc1cccc(CN)c1)c1ccc(OCc2ccccc2)cc1`, the 50% inhibitory concentration (IC50) amounted to 23.3 µM.

On to `O=C(O)c1cc(Cl)ccc1S(=O)(=O)N[C@H]1CCN(Cc2ccccc2)C2(CC2)C1`, for which the IC50 was above 99.5 µM.

Compound `CS(=O)(=O)c1ccc(-c2cccc([C@H](NC(=O)OCc3ccccc3)C(=O)Nc3cccc(CN)c3)c2)cn1` gave an IC50 above 99.5 µM.

In the case of `O=C(O)c1cc(Cl)ccc1S(=O)(=O)NC1CCN(C(=O)c2ccccc2C(F)(F)F)CC1`, the half-maximal inhibitory concentration (IC50) is above 99.5 µM.

Take `NCc1cccc(NC(=O)[C@H](NC(=O)OCc2ccccc2)C2CCC(c3ccccc3)CC2)c1` (some centres not stated): the IC50 is 7.6 µM and 7.31 µM.

On to `NCc1ccccc1NC(=O)c1cc(Cl)cc(NC(=O)OCc2ccccc2)c1`, for which the 50% inhibitory concentration (IC50) was above 99.5 µM.

`COc1ccc(NS(=O)(=O)c2ccc(Cl)cc2C(=O)O)cc1S(=O)(=O)N1CCCC1`: the IC50 is above 99.5 µM.

On to `Cc1cc(C)n(-c2ccc(NS(=O)(=O)c3ccc(Cl)cc3C(=O)O)cc2)n1`, for which the IC50 is above 99.5 µM.

`Cc1ncc(COc2ccc([C@H](NC(=O)OCc3ccccc3)C(=O)Nc3cccc(CN)c3)cc2)cn1`: the half-inhibitory concentration (IC50) was above 99.5 µM.

Turning to `NCc1cccc(NC(=O)c2cc(Br)cc(NC(=O)OCc3ccccc3)c2)c1`, the half-inhibitory concentration (IC50) is 7.91 µM.

`O=C(O)c1cc(Cl)ccc1S(=O)(=O)Nc1nn(Cc2ccccc2)cc1Cl` registered a 50% inhibitory concentration (IC50) above 99.5 µM.
